Broadly, the half-life is the time needed for the level to fall by half in the phase considered. By EC50 is commonly meant the concentration that produces a half-maximal response. What is called CC50 is the concentration giving 50% cytotoxicity. The term Kd denotes the constant that tells how readily two partners part at equilibrium. Usually IC50 stands for the midpoint of a concentration-inhibition curve. Read a low IC50 as higher potency. Usually clearance stands for a measure of how efficiently the substance is removed, as volume per time. Lower therefore signals a low capacity for elimination. As usually defined, the AUC(0-inf) is the area under the concentration-time curve extrapolated to infinity.

In data set [1] the target is Cathepsin B (Homo sapiens) (UniProt P07858). The data set can be described thus: Inhibition of cathepsin B (unknown origin).
Data set [2] in a line: Metabolic stability in mouse serum assessed as half life by HPLC analysis. Format: ADME, cell-free.
For data set [3], the system named is SARS-CoV-2. The data set can be described thus: Antiviral activity against SARS-CoV-2 infected in human Caco-2 cells assessed as inhibition of viral infection preincubated for 1 hr followed by viral infection measured after 48 hrs by CQ1 confocal quantitative image cytometer analysis. Format: functional, organism-based. Particulars: for EC50: Severe acute respiratory syndrome coronavirus 2, Caco-2; for Activity: Severe acute respiratory syndrome coronavirus 2, time 49.0 hrs.

Data set [4] can be described thus: (§1) Cytotoxicity against human Caco-2 cells assessed as cell viability at 100 uM incubated for 48 hrs by CCK-8 assay. Particulars: Caco-2 cells. Format: toxicity, cell-based. On the technique in general: Formazan colour is commonly taken as a measure of viable cells.
Data set [5] has as its target T1, Replicase polyprotein 1ab (Severe acute respiratory syndrome coronavirus 2, UniProt P0DTD1). As to the kind of experiment: Binding affinity to N-terminal his-tagged SARS-CoV-2 Main protease expressed in Escherichia coli BL21 (DE3) assessed as dissociation constant by ITC analysis. For orientation: In ITC the heat of successive injections is recorded.
Data set [6] addresses T1, Replicase polyprotein 1ab. The data set can be described thus: Inhibition of N-terminal his-tagged SARS-CoV-2 Main protease expressed in Escherichia coli BL21 (DE3) using Dabcyl-TSAVLWSGFRICMK-Edans as substrate preincubated for 10 mins by microplate reader analysis.
In data set [7] the target is Ubiquitin carboxyl-terminal hydrolase 14 (Homo sapiens) (UniProt P54578). The data set can be described thus: Inhibition of USP14 (unknown origin).
Chain of Ubiquitin carboxyl-terminal hydrolase 14 (Homo sapiens) (P54578 whole entry): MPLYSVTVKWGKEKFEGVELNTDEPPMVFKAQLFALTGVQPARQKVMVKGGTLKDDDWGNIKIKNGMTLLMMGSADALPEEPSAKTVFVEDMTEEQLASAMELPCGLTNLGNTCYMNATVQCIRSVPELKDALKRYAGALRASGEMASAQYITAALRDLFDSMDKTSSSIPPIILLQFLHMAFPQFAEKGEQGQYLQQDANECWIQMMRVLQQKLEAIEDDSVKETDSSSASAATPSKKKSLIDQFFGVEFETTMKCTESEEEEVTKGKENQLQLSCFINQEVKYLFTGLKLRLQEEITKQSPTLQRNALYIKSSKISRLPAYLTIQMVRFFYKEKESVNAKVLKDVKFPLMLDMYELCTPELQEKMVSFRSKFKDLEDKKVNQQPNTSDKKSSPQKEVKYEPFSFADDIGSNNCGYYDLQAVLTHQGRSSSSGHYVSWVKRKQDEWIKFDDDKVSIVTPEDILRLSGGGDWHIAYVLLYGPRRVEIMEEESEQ
In data set [8] the test system is SARS-CoV-2. The data set can be described thus: Antiviral activity against SARS-CoV-2. Format: functional, organism-based. The conditions noted are these: Severe acute respiratory syndrome coronavirus 2.
Data set [9] has as its system Caco-2. The data set is described as §1. Format: toxicity, cell-based. Particulars: caco-2, 48 h, 100 µM.
A short description of data set [10]: Half life in male CD-1 mouse at 4 mg/kg, iv by LC-MS/MS analysis. The conditions noted are these: in vivo. Format: ADME, organism-based.
Data set [11] in a line: Clearance in male CD-1 mouse at 4 mg/kg, iv by LC-MS/MS analysis. Format: ADME, organism-based. The conditions noted are these: in vivo.
A short description of data set [12]: Drug uptake in human HeLa cells at 5 uM measured after 3 hrs by live confocal microscopic analysis. Format: ADME, cell-based.
A short description of data set [13]: AUC (0 to infinity) in male CD-1 mouse at 4 mg/kg, iv by LC-MS/MS analysis. The conditions noted are these: in vivo. Format: ADME, organism-based.
A short description of data set [14]: Volume of distribution at steady state in male CD-1 mouse at 4 mg/kg, iv by LC-MS/MS analysis. Format: ADME, organism-based. The conditions noted are these: in vivo, read-out: Vdss.
A short description of data set [15]: Drug uptake in human Caco-2 cells at 5 uM measured after 3 hrs by live confocal microscopic analysis. Format: ADME, cell-based. Particulars: caco-2, 3 h.
The nature of data set [16]: Initial plasma concentration in male CD-1 mouse at 4 mg/kg, iv by LC-MS/MS analysis. Format: ADME, organism-based.
Data set [17] has as its system SARS-CoV-2. The data set can be described thus: Antiviral activity against SARS-CoV-2 Omicron. The conditions noted are these: Severe acute respiratory syndrome coronavirus 2, Omicron. Format: functional, organism-based.

The structures appear in SMILES notation. The source made the active and inactive calls. Positions of bridges follow the written chain, without caps; N, C: chain ends. Residues, ends and D or L forms follow the SMILES beside them.

Regarding `CC(C)C[C@@H]1NC(=O)[C@H](Cc2ccccc2)NC(=O)[C@@H]2CCCN2C(=O)[C@H]([C@@H](C)O)NC(=O)[C@H]([C@@H](C)O)NC(=O)[C@H]([C@@H](C)O)NC(=O)[C@H](Cc2c[nH]cn2)NC(=O)[C@H](Cc2ccccc2)NC(=O)[C@H]([C@@H](C)O)NC(=O)[C@H](C(C)C)NC(=O)[C@@H](Cc2ccc(O)cc2)NC(=O)CSC[C@@H](C(=O)NCC(N)=O)NC(=O)[C@@H]2CCCN2C(=O)[C@@H]2CCCN2C1=O`, the inhibition entry in data set [1] is “Active”. Moreover, the half-life in data set [2] is 5.4 h. In addition, in data set [3], the EC50 stood at 10800 nM and the result was inactive. The 50% cytotoxic concentration (CC50) at 48 h in data set [4] was over 100000 nM. Besides, the Kd in [5] was 2750 nM. In addition, the IC50 in [6] turned out to be 300 nM. The inhibition result in data set [7] is “Active”.
Take `CC(C)C[C@@H]1NC(=O)[C@H](CC(N)=O)NC(=O)[C@H](Cc2ccc(O)cc2)NC(=O)CSC[C@@H](C(=O)NCC(N)=O)NC(=O)[C@H](Cc2ccc(O)cc2)NC(=O)[C@H](CCC(N)=O)NC(=O)[C@H]([C@@H](C)O)NC(=O)[C@H]([C@@H](C)O)NC(=O)[C@H](Cc2c[nH]c3ccccc23)NC(=O)[C@H](CC(=O)O)NC(=O)[C@H]([C@@H](C)O)NC(=O)[C@H](CCCNC(=N)N)NC(=O)[C@H](CCC(N)=O)NC(=O)[C@H](Cc2ccccc2)NC1=O` ({CH2CO}-YNLFQRTDWTTQYCG-NH2; thioether N-14): the half-life in data set [2] is 1.6 h. In [3], the EC50 is 4890 nM and the result was inactive. For the same molecule, the cytotoxic concentration (CC50) at 48 h in [4] was over 100000 nM. Moreover, the Kd in data set [5] stood at 1120 nM. In [6], this molecule gave an IC50 of 500 nM.
As to `CC(C)C[C@@H]1NC(=O)[C@H](CC(N)=O)NC(=O)[C@H](Cc2ccc(O)cc2)NC(=O)CSC[C@@H](C(=O)NCC(N)=O)NC(=O)[C@H](Cc2ccccc2)NC(=O)[C@H](CCCNC(=N)N)NC(=O)[C@H](CCC(N)=O)NC(=O)[C@H](CC(N)=O)NC(=O)[C@H](Cc2c[nH]c3ccccc23)NC(=O)[C@H](CC(=O)O)NC(=O)[C@H]([C@@H](C)O)NC(=O)[C@H](CCCNC(=N)N)NC(=O)[C@H](CCC(N)=O)NC(=O)[C@H](Cc2ccccc2)NC1=O` ({CH2CO}-YNLFQRTDWNQRFCG-NH2; thioether N-14), in [3], the result was inactive. In data set [5], the Kd turned out to be 2540 nM. Moreover, in data set [6], the IC50 came to 250 nM.
In the case of `CC(C)C[C@H](NC(=O)OCc1ccccc1)C(=O)N[C@@H](CC1CCNC1=O)C(O)S(=O)(=O)O` (stereo not given in full), the EC50 in data set [8] came out at 4500 nM.
Regarding `CC(C)C[C@@H]1NC(=O)[C@H](Cc2ccccc2)NC(=O)[C@@H](Cc2ccc(O)cc2)NC(=O)CSC[C@@H](C(=O)NCC(N)=O)NC(=O)CNC(=O)[C@H](Cc2ccccc2)NC(=O)[C@H]([C@@H](C)O)NC(=O)[C@H](Cc2ccc(O)cc2)NC(=O)[C@H](CCCNC(=N)N)NC(=O)[C@H](Cc2ccc(O)cc2)NC(=O)[C@@H]2CCCN2C(=O)[C@@H]2CCCN2C1=O`, the result in data set [3] was inactive. Moreover, the Kd in [5] worked out at 4000 nM. In data set [6], it took 1450 nM to reach half-maximal inhibition (IC50).
As to `CC(C)(C)[C@H](NC(=O)C(F)(F)F)C(=O)N1C[C@H]2[C@@H]([C@H]1C(=O)N[C@H](C#N)C[C@@H]1CCNC1=O)C2(C)C`, the midpoint of the response in [8], the EC50, lay at 32.6 nM.
On to `CC[C@H](C)[C@@H]1NC(=O)[C@@H](Cc2ccc(O)cc2)NC(=O)CSC[C@@H](C(=O)NCC(N)=O)NC(=O)[C@@H]2CCCN2C(=O)[C@H](CC(C)C)NC(=O)[C@H](CC(C)C)NC(=O)[C@H]([C@@H](C)O)NC(=O)[C@H](CC(N)=O)NC(=O)CNC(=O)[C@H](CO)NC(=O)[C@H](C)NC(=O)[C@H](Cc2ccccc2)NC(=O)[C@H](CCCNC(=N)N)NC1=O`, for which, in [3], the outcome was inactive. In addition, the dissociation constant Kd in [5] turned out to be 4800 nM. Further, half-maximal inhibition in data set [6] (IC50) required 250 nM.
For the molecule `CC(C)C[C@@H]1NC(=O)[C@H](Cc2ccc(F)c(F)c2)NC(=O)[C@@H]2CCCN2C(=O)[C@H]([C@@H](C)O)NC(=O)[C@H]([C@@H](C)O)NC(=O)[C@H]([C@@H](C)O)NC(=O)[C@H](Cc2c[nH]cn2)NC(=O)[C@H](Cc2cccc(F)c2)NC(=O)[C@H]([C@@H](C)O)NC(=O)[C@H](C(C)C)NC(=O)[C@@H](Cc2ccc(O)cc2)NC(=O)CSC[C@@H](C(=O)NCC(N)=O)NC(=O)[C@@H]2CCCN2C(=O)[C@@H]2CCCN2C1=O`, the inhibition entry in [1] and in [7] was “Active” each time. Further, in data set [3], the half-maximal effective concentration (EC50) is over 100000 nM. The molecule further returned a 50% inhibitory concentration (IC50) in [6] of 320 nM.
`Cc1cccc(C)c1OCC(=O)N[C@@H](Cc1ccccc1)[C@@H](O)C[C@H](Cc1ccccc1)NC(=O)[C@H](C(C)C)N1CCCNC1=O` [LOPINAVIR] yielded an EC50 in [8] of 8750 nM. Moreover, in [9], the Activity entry is given as “Toxic”.
As for `CC[C@H](C)[C@@H]1NC(=O)[C@H](Cc2ccc(O)cc2)NC(=O)[C@H](CO)NC(=O)[C@H](CC(C)C)NC(=O)CNC(=O)[C@H](Cc2ccc(O)cc2)NC(=O)[C@H](CO)NC(=O)[C@H](CCC(N)=O)NC(=O)[C@H](Cc2ccccc2)NC(=O)[C@@H](Cc2ccc(O)cc2)NC(=O)CSC[C@@H](C(=O)NCC(N)=O)NC(=O)CNC(=O)[C@@H]2CCCN2C1=O`, the result in data set [3] was inactive. For the same molecule, the dissociation constant Kd in data set [5] stood at 2780 nM. The same molecule displayed a concentration for half-maximal inhibition (IC50) in data set [6] of 460 nM.
The corresponding values for `CC(C)C[C@@H]1NC(=O)[C@H](CC(N)=O)NC(=O)[C@H](Cc2ccc(O)cc2)NC(=O)CSC[C@@H](C(=O)NCC(N)=O)NC(=O)[C@H](Cc2ccccc2)NC(=O)[C@H](CO)NC(=O)[C@H](CO)NC(=O)[C@H](CO)NC(=O)[C@H](Cc2c[nH]c3ccccc23)NC(=O)[C@H](CC(=O)O)NC(=O)[C@H](C)NC(=O)[C@H](CCCNC(=N)N)NC(=O)[C@H](CCC(N)=O)NC(=O)[C@H](Cc2ccccc2)NC1=O` ({CH2CO}-YNLFQRADWSSSFCG-NH2; thioether N-14) are “inactive”, 6730 nM and 300 nM.
In data set [8], `CC(C)c1nc(CN(C)C(=O)N[C@H](C(=O)N[C@@H](Cc2ccccc2)C[C@H](O)[C@H](Cc2ccccc2)NC(=O)OCc2cncs2)C(C)C)cs1` [RITONAVIR] gave a concentration giving a half-maximal response (EC50) of 7540 nM.
Regarding `CC(C)[C@@H]1NC(=O)[C@@H](Cc2ccc(O)cc2)NC(=O)CC[C@@H](C(N)=O)NC(=O)[C@@H]2CCCN2C(=O)[C@@H]2CCCN2C(=O)C2CSc3c(F)c(F)c(c(F)c3F)-c3c(F)c(F)c(c(F)c3F)SC[C@H](NC1=O)C(=O)N[C@@H](Cc1ccccc1)C(=O)N[C@@H](Cc1c[nH]cn1)C(=O)N[C@@H]([C@@H](C)O)C(=O)N[C@@H]([C@@H](C)O)C(=O)N[C@@H]([C@@H](C)O)C(=O)N1CCC[C@H]1C(=O)N[C@@H](Cc1ccccc1)C(=O)N2`, the half-life in data set [10] was 0.499 h; in data set [2] it was 8 h. The molecule further gave a clearance in data set [11] of 26.5 mL/min/kg. Also, the Drug uptake entry in data set [12] and in [15] was “Active” throughout. For the same molecule, in [3], the concentration for a half-maximal effect (EC50) was 8620 nM. The same molecule showed an AUC(0-inf) in [13] of 2530 ng·h/mL. In addition, the Activity entry in data set [9] is on record as “Non-toxic”. In addition, the Vd in data set [14] was 0.511 L/kg. Besides, the concentration for half-maximal inhibition (IC50) in [6] turned out to be 4510 nM. For the same molecule, the C0 in data set [16] came out at 12100 ng/mL.
Regarding `Cn1cnc(Cn2c(=O)[nH]/c(=N\c3cc4cn(C)nc4cc3Cl)n(Cc3cc(F)c(F)cc3F)c2=O)n1`, the 50% effective concentration (EC50) in data set [17] was 220 nM.

The values above are taken from ChEMBL document CHEMBL6083280, “De Novo Discovery of a Noncovalent Cell-Penetrating Bicyclic Peptide Inhibitor Targeting SARS-CoV-2 Main Protease” (J Med Chem, 2024).
